From article PMC3688238, “The effect of different dosing regimens of motesanib on the gallbladder: a randomized phase 1b study in patients with advanced solid tumors” (BMC Cancer, 2013)
Like-named read-outs stand apart in the source and are kept apart here.

Key:
Type in all cases: in vivo, human
[1] = Pharmacokinetic analysis of plasma motesanib concentrations (noncompartmental); details: for concentration at 24 h: read-out: Median Cmin (trough plasma concentration at 24 hours postdose); for Cmax: po, read-out: Median Cmax
Description: Blood samples were collected as follows: predose and at 30 minutes and 1, 2, 4, 6, 8, and 24 hours postdose on day 1 of weeks 1 and 4, and predose and 1 to 2 hours postdose at weeks 2, 3, and 7 and every 3 weeks thereafter. […] Motesanib concentrations were assessed as described previously.

gallbladder [2] = test: Specific gallbladder findings per independent ultrasound review
Description: (§1) Gallbladder volume was assessed by ultrasound after a ≥8 hours fast at screening (within 21 days prior to randomization) and before the motesanib morning dose on days 8 and 15 of cycle 1, on day 1 of cycles 2 and 3, every 6 weeks thereafter, and at the safety follow-up (30 to 33 days after the last dose). Ultrasound was performed weekly when motesanib was withheld and weekly for 4 weeks following treatment discontinuation. Gallbladder ultrasound measurements were assessed by independent central radiologic review (MedQIA, Los Angeles, CA, USA). Gallbladder ejection fraction was assessed by investigators or other study site personnel using CCK-HIDA at screening (within 21 days of randomization), on day 1 of cycle 2, day 1 of cycle 6 (±3 days), and at the safety follow-up. Study-specific training and standard operating procedures were supplied to all radiology technicians.

gallbladder [3] = test: Gallbladder function (ejection fraction) by CCK-HIDA, investigator assessment; details: for Gallbladder ejection fraction, mean change from baseline (95% CI): CCK-HIDA
Description: as §1
(§2) The ultrasound and CCK-HIDA gallbladder analysis sets, which included all randomized patients who received ≥1 dose of motesanib and had baseline and ≥1 evaluable follow-up ultrasound or CCK-HIDA, respectively, were used for the principal analysis of endpoints related to gallbladder size and characteristics. For each dosing scheme, estimates for the mean and maximum change from baseline in gallbladder size (volume as measured by ultrasound) and function (ejection fraction as measured by CCK-HIDA scan) were calculated. Mean change from baseline was calculated by taking the difference between the baseline gallbladder measurement and the average gallbladder measurement observed during study treatment. The mean (95% CI) difference was then calculated across all patients for each treatment arm, and for the whole study population. Maximum change from baseline in gallbladder size or volume was calculated by taking the difference between the baseline gallbladder measurement and the maximum gallbladder measurement observed during study treatment. The mean (95% CI) maximum change from baseline was then calculated across all patients for each treatment arm, and for the whole study population. Reversibility of changes in gallbladder volume and ejection fraction were evaluated calculating changes between the last on-treatment measurement and the last available measurement following the discontinuation of motesanib. Covariates (treatment, age, sex, body mass index, and nonsteroidal anti-inflammatory drug [NSAID] use) were explored in a linear regression model for potential relationships with gallbladder volume. Objective response was assessed for the safety analysis set, including only patients with measureable disease at baseline.

[4] = test system: advanced metastatic solid tumors; test: Tumor response per RECIST (investigator)
Description: Tumor response per RECIST [27] was assessed by the investigators. Magnetic resonance imaging or CT scans were performed at screening, every 6 weeks thereafter, and at the safety follow-up. Complete or partial responses were confirmed >28 days after the initial response assessment throughout the study. Patients who discontinued without a postbaseline tumor assessment or confirmation were considered nonresponders.
as §2

gallbladder [5] = test: Gallbladder size (volume) by ultrasound, independent central review; details: for Mean change in gallbladder volume after discontinuation of motesanib (95% CI): last on-treatment to last available off-treatment measurement; for Gallbladder volume, mean change from baseline (95% CI): ultrasound
Description: as §1, §2

[6] = test system: patients with advanced metastatic solid tumors; test: Adverse events (NCI CTCAE version 3.0)
Description: AEs occurring during treatment and through the safety follow-up were recorded and graded according to the National Cancer Institute Common Terminology Criteria for Adverse Events (version 3.0).

[7] = Arm A, 125 mg QD, post baseline, n = 23
[8] = Arm A, 125 mg QD, post treatment, n = 16
[9] = Arm B, 75 mg BID 2 wk on/1 wk off
[10] = Arm B, 75 mg BID 2 wk on/1 wk off, post baseline, n = 11
[11] = Arm B, 75 mg BID 2 wk on/1 wk off, post treatment, n = 9
[12] = Arm C, 75 mg BID 5 d on/2 d off
[13] = Arm C, 75 mg BID 5 d on/2 d off, post baseline, n = 11
[14] = Arm C, 75 mg BID 5 d on/2 d off, post treatment, n = 8
[15] = Arm B, 75 mg BID 2 wk on/1 wk off, n = 3
[16] = Arm B, 75 mg BID 2 wk on/1 wk off, n = 10
[17] = Arm C, 75 mg BID 5 d on/2 d off, n = 2
[18] = Arm C, 75 mg BID 5 d on/2 d off, n = 10
[19] = Arm B, 75 mg BID 2 wk on/1 wk off, n = 9
[20] = Arm B, 75 mg BID 2 wk on/1 wk off, n = 11
[21] = Arm C, 75 mg BID 5 d on/2 d off, n = 8
[22] = Arm C, 75 mg BID 5 d on/2 d off, n = 11

CC1(C)CNc2cc(NC(=O)c3cccnc3NCc3ccncc3)ccc21 [Motesanib]
Median motesanib concentration after wash-out period ([1]; Arm B, after the 1-week wash-out period, limit of quantitation 0.2 ng/mL): < 0.2 ng/mL
Median motesanib concentration after wash-out period ([1]; Arm C, after the 2-day wash-out period): 1.2 ng/mL
Drug accumulation ([1]; after QD administration): no evidence of drug accumulation
concentration at 24 h ([1]; human, plasma, oral, 75 mg, Arm B, 75 mg BID 2 wk on/1 wk off): 60 ng/mL
concentration at 24 h ([1]; human, plasma, oral, 75 mg, Arm C, 75 mg BID 5 d on/2 d off): 35 ng/mL
concentration at 24 h ([1]; human, plasma, oral, 125 mg, Arm A, 125 mg QD): 14 ng/mL
AUC ([1]; human, plasma, oral, range across the three dosing regimens, read-out: Median AUC): 1900 to 3000 ng·h/mL
Cmax ([1]; human, plasma, 75 mg, Arm B, 75 mg BID 2 wk on/1 wk off, plasma, oral): 323 ng/mL
Cmax ([1]; human, plasma, 75 mg, Arm C, 75 mg BID 5 d on/2 d off, plasma, oral): 355 ng/mL
Cmax ([1]; human, plasma, 125 mg, Arm A, 125 mg QD, plasma, oral): 630 ng/mL
Incidence of biliary sludge (gallbladder [2]; Arm A, 125 mg QD): 39%
Gallstones, patient incidence (gallbladder [2]; Arm A, 125 mg QD, post baseline (any point during treatment), n = 23): 4 (17) n (%)
Common duct dilation, patient incidence (gallbladder [2]; [7]): 0 (0) n (%)
Pericholecystic fluid, patient incidence (gallbladder [2]; [7]): 1 (4) n (%)
Sludge, patient incidence (gallbladder [2]; [7]): 9 (39) n (%)
Gallstones, patient incidence (gallbladder [2]; Arm A, 125 mg QD, post treatment (last available off-treatment assessment), n = 16): 3 (19) n (%)
Common duct dilation, patient incidence (gallbladder [2]; [8]): 0 (0) n (%)
Pericholecystic fluid, patient incidence (gallbladder [2]; [8]): 0 (0) n (%)
Sludge, patient incidence (gallbladder [2]; [8]): 4 (25) n (%)
Incidence of biliary sludge (gallbladder [2]; [9]): 36%
Common duct dilation, patient incidence (gallbladder [2]; [10]): 0 (0) n (%)
Gallstones, patient incidence (gallbladder [2]; [10]): 2 (18) n (%)
Pericholecystic fluid, patient incidence (gallbladder [2]; [10]): 1 (9) n (%)
Sludge, patient incidence (gallbladder [2]; [10]): 4 (36) n (%)
Common duct dilation, patient incidence (gallbladder [2]; [11]): 0 (0) n (%)
Gallstones, patient incidence (gallbladder [2]; [11]): 2 (22) n (%)
Pericholecystic fluid, patient incidence (gallbladder [2]; [11]): 0 (0) n (%)
Sludge, patient incidence (gallbladder [2]; [11]): 4 (44) n (%)
Incidence of biliary sludge (gallbladder [2]; [12]): 27%
Common duct dilation, patient incidence (gallbladder [2]; [13]): 0 (0) n (%)
Gallstones, patient incidence (gallbladder [2]; [13]): 0 (0) n (%)
Pericholecystic fluid, patient incidence (gallbladder [2]; [13]): 0 (0) n (%)
Sludge, patient incidence (gallbladder [2]; [13]): 3 (27) n (%)
Common duct dilation, patient incidence (gallbladder [2]; [14]): 0 (0) n (%)
Gallstones, patient incidence (gallbladder [2]; [14]): 0 (0) n (%)
Pericholecystic fluid, patient incidence (gallbladder [2]; [14]): 0 (0) n (%)
Sludge, patient incidence (gallbladder [2]; [14]): 0 (0) n (%)
Patients who developed de novo gallstones during treatment (gallbladder [2]; all arms): Two
Mean change in ejection fraction after discontinuation of motesanib (95% CI) (gallbladder [3]; Arm A, 125 mg QD, n = 5): 10.8 (−45.8 to 67.4) %
Mean change in ejection fraction from baseline to last available off-treatment measurement (95% CI) (gallbladder [3]; Arm A, 125 mg QD, n = 5): −16.6 (−53.3 to 20.1) %
Gallbladder ejection fraction, maximum change from baseline (95% CI) (gallbladder [3]; Arm A, 125 mg QD, n = 21): −30.1 (−46.4 to −13.7) %
Gallbladder ejection fraction, mean change from baseline (95% CI) (gallbladder [3]; Arm A, 125 mg QD, n = 21): −24.1 (−38.2 to −9.9) %
Mean change in ejection fraction after discontinuation of motesanib (95% CI) (gallbladder [3]; [15]): 63.0 (24.0 to 102.0) %
Mean change in ejection fraction from baseline to last available off-treatment measurement (95% CI) (gallbladder [3]; [15]): 7.7 (−3.8 to 19.1) %
Gallbladder ejection fraction, maximum change from baseline (95% CI) (gallbladder [3]; [16]): −26.5 (−45.0 to −8.0) %
Gallbladder ejection fraction, mean change from baseline (95% CI) (gallbladder [3]; [16]): −25.0 (−43.9 to −6.1) %
Mean change in ejection fraction after discontinuation of motesanib (95% CI) (gallbladder [3]; [17]): 46.0 (−347.9 to 439.9) %
Mean change in ejection fraction from baseline to last available off-treatment measurement (95% CI) (gallbladder [3]; [17]): 14.5 (−55.4 to 84.4) %
Gallbladder ejection fraction, maximum change from baseline (95% CI) (gallbladder [3]; [18]): −6.5 (−29.8 to 16.8) %
Gallbladder ejection fraction, mean change from baseline (95% CI) (gallbladder [3]; [18]): −3.3 (−25.0 to 18.4) %
Gallbladder ejection fraction change from baseline, median (gallbladder [3]; across all patients): −18.0%
Gallbladder ejection fraction change from baseline, range (gallbladder [3]; across all patients): −81% to 67
Gallbladder ejection fraction decrease from baseline, mean (gallbladder [3]; across all patients, from 61.3% at baseline): 19.2%
Durable (≥24 weeks) stable disease ([4]; Arm A, n = 6): 25%
Progressive disease ([4]; Arm A, n = 8): 33%
Stable disease as best tumor response ([4]; Arm A, n = 15): 63%
Durable (≥24 weeks) stable disease ([4]; Arm B, n = 1): 8%
Progressive disease ([4]; Arm B, n = 3): 25%
Stable disease as best tumor response ([4]; Arm B, n = 6): 50%
Patients with confirmed partial response ([4]; Arm B, stage IV thyroid cancer): one
Durable (≥24 weeks) stable disease ([4]; Arm C, n = 1): 9%
Progressive disease ([4]; Arm C, n = 4): 36%
Stable disease as best tumor response ([4]; Arm C, n = 7): 64%
Complete responses ([4]; all patients): No complete responses were achieved
Durable (≥24 weeks) stable disease ([4]; all patients (8 patients)): 17%
Progressive disease ([4]; all patients (fifteen patients)): 32%
Stable disease as best tumor response ([4]; all patients (twenty-eight patients)): 60%
Overall objective response rate ([4]; all patients with measurable disease at baseline, RECIST): 2%
Mean change in gallbladder volume from baseline to last available off-treatment measurement (95% CI) (gallbladder [5]; Arm A, 125 mg QD, n = 16): 10.4 (−10.0 to 30.8) cc
Mean change in gallbladder volume after discontinuation of motesanib (95% CI) (gallbladder [5]; Arm A, 125 mg QD, n = 16): −8.5 (−38.8 to 21.7) cc
Gallbladder volume, maximum change from baseline (95% CI) (gallbladder [5]; Arm A, 125 mg QD, n = 23): 45.6 (20.2–70.9) cc
Gallbladder volume, mean change from baseline (95% CI) (gallbladder [5]; Arm A, 125 mg QD, n = 23): 17.7 (6.4–28.9) cc
Mean change in gallbladder volume from baseline to last available off-treatment measurement (95% CI) (gallbladder [5]; [19]): −14.4 (−31.1 to 2.4) cc
Mean change in gallbladder volume after discontinuation of motesanib (95% CI) (gallbladder [5]; [19]): −16.2 (−37.4 to 5.1) cc
Gallbladder volume, maximum change from baseline (95% CI) (gallbladder [5]; [20]): 74.4 (41.3–107.4) cc
Gallbladder volume, mean change from baseline (95% CI) (gallbladder [5]; [20]): 26.8 (11.5–42.1) cc
Mean change in gallbladder volume from baseline to last available off-treatment measurement (95% CI) (gallbladder [5]; [21]): 7.1 (−28.9 to 43.0) cc
Mean change in gallbladder volume after discontinuation of motesanib (95% CI) (gallbladder [5]; [21]): −7.4 (−67.1 to 52.4) cc
Gallbladder volume, maximum change from baseline (95% CI) (gallbladder [5]; [22]): 67.3 (30.8–103.8) cc
Gallbladder volume, mean change from baseline (95% CI) (gallbladder [5]; [22]): 26.9 (8.8–45.1) cc
Gallbladder volume change from baseline during treatment, median (gallbladder [5]; across all patients): 17.3 cc
Gallbladder volume change from baseline during treatment, range (gallbladder [5]; across all patients): −43.3 to 83.2 cc
Gallbladder volume increase from baseline during treatment, mean (gallbladder [5]; across all patients, from 38.6 cc at baseline): 22.2 cc
Incidence of grade ≥3 treatment-related AEs ([6]; Arm A, 125 mg QD): 32%
Patients with serious grade 3 acute cholecystitis resulting in cholecystectomy ([6]; Arm A, approximately 1 month after treatment initiation): one
Patients with cholecystitis that resolved after treatment discontinuation ([6]; Arm A, grades 1, 2, 3, n = 1 each): Three
Patients with grade 1 gallbladder disorders (gallbladder dysfunction, gallbladder wall thickening) ([6]; Arm A, ongoing at safety follow-up): two
Incidence of grade ≥3 treatment-related AEs [6, 9]: 42%
Incidence of grade ≥3 treatment-related AEs [6, 12]: 33%
Patients with right upper quadrant pain during the study ([6]; all patients): Twelve
Patients with grade 4 AEs ([6]; all patients (one each in Arms B and C)): Two
Gallbladder toxicity events (all considered treatment-related), incidence ([6]; occurred only in Arm A, 125 mg QD): 12%
